Here are results for 15 compounds from patent US8173689B2 (Novartis AG, priority 2006, dated 2012).

The target of test [1] is T1, cytoplasmic domain of the human CSF-1R (Homo sapiens, UniProt P07333).
T1 construct: Recombinant protein corresponding to the cytoplasmic domain of the human CSF-1R; purchased Invitrogen Corporation, Carlsbad, Calif; PV3249
T1 sequence (P07333 539-972 limits assumed): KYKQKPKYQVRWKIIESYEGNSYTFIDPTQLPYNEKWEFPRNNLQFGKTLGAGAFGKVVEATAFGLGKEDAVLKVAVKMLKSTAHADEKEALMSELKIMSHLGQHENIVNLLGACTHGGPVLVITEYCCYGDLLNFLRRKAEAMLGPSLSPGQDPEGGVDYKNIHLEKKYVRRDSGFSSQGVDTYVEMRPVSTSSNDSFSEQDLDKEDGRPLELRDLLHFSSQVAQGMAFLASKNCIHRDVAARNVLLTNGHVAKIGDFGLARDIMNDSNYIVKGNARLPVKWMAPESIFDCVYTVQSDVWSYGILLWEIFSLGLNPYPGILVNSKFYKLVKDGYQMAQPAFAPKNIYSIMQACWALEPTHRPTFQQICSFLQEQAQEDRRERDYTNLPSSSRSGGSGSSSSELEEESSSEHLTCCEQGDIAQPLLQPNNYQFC
Put plainly: In vitro kinase assay for colony stimulating factor-1 receptor (AlphaScreen). The class given is biochemical. The following applies: tested at about 1 μM; read-out: CSF-1R percent inhibition. The gist of the method:
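Test compounds, serially diluted threefold starting at 25 μM, were mixed with Hepes buffer (pH 7.5, Mg2+/Mn2+, DTT, BSA, Tween 80) containing 1 μM ATP. Recombinant kinase was present at 4 nM. After stopping, beads were added and plates were read the next day by AlphaScreen.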
Background: In Alpha technology, singlet oxygen from a donor bead excites a nearby acceptor bead.

Test [2] addresses T2, full-length human CSF-1R receptor (Homo sapiens, UniProt P07333).
T2 construct: transfected with the full-length human CSF-1R receptor cloned in house; expressed in transfected cells; host or cells: HEK293H (Invitrogen Cat. #11631017)
Put plainly: In vitro inhibition of CSF-1R receptor tyrosine phosphorylation in transfected HEK293H cells stimulated with MCSF. The test is classed as cell-based. Particulars: HEK293-H, tested at about 1 μM; HEK293H cells; read-out: pCSF1R percent inhibition. Here is the method:
The lysate was then transferred to total CSF-1R antibody coated 96-well plates that had already been blocked with 3% Blocker A from Mesoscale discovery (MSD) for 2 hours and washed afterwards. Lysates were incubated overnight at 4° C. and the plates were then washed 4× with MSD Tris Wash Buffer. […] The plates were read on the Sector 6000 instrument (MSD). Raw data was imported in Abase and EC50s calculated with XL-fit data analysis software.

The target in a further test is T3, kinase domain of cKIT (Homo sapiens, UniProt P10721).
T3 construct: The kinase domain of cKIT was assayed in 50 mM Hepes; purchased Upstate 14-559
T3 sequence (P10721 589-937 limits assumed): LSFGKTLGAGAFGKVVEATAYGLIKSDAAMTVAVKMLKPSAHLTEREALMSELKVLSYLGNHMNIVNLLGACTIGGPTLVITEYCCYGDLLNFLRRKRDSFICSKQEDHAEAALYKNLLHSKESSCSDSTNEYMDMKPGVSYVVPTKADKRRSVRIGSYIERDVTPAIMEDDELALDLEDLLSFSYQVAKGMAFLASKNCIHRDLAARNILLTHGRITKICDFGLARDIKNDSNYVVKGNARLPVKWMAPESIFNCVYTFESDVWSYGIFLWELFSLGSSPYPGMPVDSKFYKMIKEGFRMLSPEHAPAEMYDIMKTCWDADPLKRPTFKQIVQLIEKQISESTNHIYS
Nature of the test: Inhibition of cKIT kinase signaling in an in vitro biochemical assay (alphascreen). The following applies: tested at about 1 μM; read-out: cKit percent inhibition.

The next test deals with T4, kinase domain of PDGFRβ (Homo sapiens, UniProt P09619).
T4 construct: The kinase domain of PDGFRβ was assayed in 50 mM Hepes; purchased Invitrogen P3082
T4 sequence (P09619 600-962 limits assumed): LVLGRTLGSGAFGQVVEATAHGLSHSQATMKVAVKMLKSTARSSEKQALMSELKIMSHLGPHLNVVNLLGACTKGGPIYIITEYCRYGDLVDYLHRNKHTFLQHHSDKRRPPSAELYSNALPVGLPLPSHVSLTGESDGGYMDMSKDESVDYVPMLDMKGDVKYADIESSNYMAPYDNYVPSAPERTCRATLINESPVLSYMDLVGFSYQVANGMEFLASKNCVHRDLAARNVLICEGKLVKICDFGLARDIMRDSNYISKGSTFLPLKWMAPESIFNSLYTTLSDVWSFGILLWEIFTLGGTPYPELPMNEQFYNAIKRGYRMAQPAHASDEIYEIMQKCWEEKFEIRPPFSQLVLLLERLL
Put plainly: Inhibition of PDGFRb kinase signaling in an in vitro biochemical assay (alphascreen). The following applies: tested at about 1 μM; read-out: PDGFRβ percent inhibition.

For test [3], the system named is MNFS60 (murine AML cells). Nature of the test: Cell viability assay in MCSF dependent MNFS60 cells (Cell Titer Glo). The class given is cell-based. The following applies: Mus musculus, tested at about 1 μM; MCSF dependent MNFS60 cells; read-out: M-NFS-60 CP percent inhibition. Summed up:
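Three-fold serial compound dilutions, prepared in DMSO at 500× the final level, were applied alongside MCSF (final 10 ng/ml). Incubation lasted 72 hrs (37° C., 5% CO2) before CellTiter-Glo addition. Triplicate points were curve-fitted for EC50.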
For orientation: Cellular ATP, detected with luciferase, serves as a proxy for viable cell number.

SMILES strings stand for the structures.

T2 sequence (P07333 20-972): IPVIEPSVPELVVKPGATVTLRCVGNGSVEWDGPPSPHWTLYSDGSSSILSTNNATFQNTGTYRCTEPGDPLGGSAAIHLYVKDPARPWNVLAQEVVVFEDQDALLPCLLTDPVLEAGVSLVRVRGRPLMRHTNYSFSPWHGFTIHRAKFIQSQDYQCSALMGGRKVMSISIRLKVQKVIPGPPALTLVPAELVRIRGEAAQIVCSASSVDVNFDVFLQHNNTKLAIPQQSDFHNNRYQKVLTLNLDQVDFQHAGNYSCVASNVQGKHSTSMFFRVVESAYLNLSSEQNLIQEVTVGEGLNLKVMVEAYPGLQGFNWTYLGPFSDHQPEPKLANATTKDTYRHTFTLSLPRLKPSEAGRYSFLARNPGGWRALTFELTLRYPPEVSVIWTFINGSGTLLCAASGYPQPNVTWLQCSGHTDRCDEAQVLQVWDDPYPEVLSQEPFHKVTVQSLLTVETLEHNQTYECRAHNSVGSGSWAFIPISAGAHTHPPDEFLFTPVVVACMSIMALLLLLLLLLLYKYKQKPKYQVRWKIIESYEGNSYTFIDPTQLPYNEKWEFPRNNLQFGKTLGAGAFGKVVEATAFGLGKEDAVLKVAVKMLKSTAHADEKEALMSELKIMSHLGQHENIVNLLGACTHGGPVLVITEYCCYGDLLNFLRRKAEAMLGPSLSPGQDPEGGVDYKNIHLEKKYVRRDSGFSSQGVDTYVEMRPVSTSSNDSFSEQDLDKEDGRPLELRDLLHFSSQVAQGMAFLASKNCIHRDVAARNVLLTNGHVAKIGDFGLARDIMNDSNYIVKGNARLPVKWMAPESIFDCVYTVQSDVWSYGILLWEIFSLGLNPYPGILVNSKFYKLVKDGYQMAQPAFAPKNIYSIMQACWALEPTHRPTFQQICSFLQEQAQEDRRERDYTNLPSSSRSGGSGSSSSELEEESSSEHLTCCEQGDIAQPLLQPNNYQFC

For the compound `CC(C)[C@@H](CO)Nc1nc2ccc(Oc3ccnc(-c4cnn(C)c4)c3)cc2s1` [Example 352, (S)-3-methyl-2-(6-(2-(1-methyl-1H-pyrazol-4-yl)pyridin-4-yloxy)benzo[d]thiazol-2-ylamino)butan-1-ol], the inhibition (commonly the drop in the measured response relative to a control, in per cent) at 1 µM is 100% in test [1]; 97% in test [2]; 45% at kinase domain of cKIT; 74% on kinase domain of PDGFRβ; 100% in test [3].

On to `CC(C)C[C@H](CO)Nc1nc2ccc(Oc3ccnc(-c4cnn(C)c4)c3)cc2s1` [Example 355, (R)-4-methyl-2-(6-(2-(1-methyl-1H-pyrazol-4-yl)pyridin-4-yloxy)benzo[d]thiazol-2-ylamino)pentan-1-ol], for which the inhibition at 1 µM in test [1] was found to be 100%; in test [2] it was 99%; on kinase domain of cKIT, 27%; at kinase domain of PDGFRβ it was 27%; in test [3], 100%.

On to `CC(C)Cn1cc(-c2cc(Oc3ccc4nc(N[C@@H]5CCCC[C@H]5O)sc4c3)ccn2)cn1` [Example 359, (1R,2R)-2-(6-(2-(1-isobutyl-1H-pyrazol-4-yl)pyridin-4-yloxy)benzo[d]thiazol-2-ylamino)cyclohexanol], for which the inhibition at 1 µM in test [1] is 100%; in test [2] it was 93%; at kinase domain of cKIT it was 31%; on kinase domain of PDGFRβ, 19%; in test [3], 95%.

On to `O[C@@H]1CCCC[C@H]1Nc1nc2ccc(Oc3ccnc(-c4cn[nH]c4)c3)cc2s1` [Example 360, (1R,2R)-2-(6-(2-(1H-pyrazol-4-yl)pyridin-4-yloxy)benzo[d]thiazol-2-ylamino)cyclohexanol], for which the inhibition at 1 µM in test [1] turned out to be 100%; in test [2], 98%; on kinase domain of cKIT it was 29%; on kinase domain of PDGFRβ it was 16%; in test [3] it was 100%.

Take `Cn1cc(-c2cc(Oc3ccc4nc(N[C@H]5CCCc6ccccc65)sc4c3)ccn2)cn1` [Example 362, (S)-6-(2-(1-methyl-1H-pyrazol-4-yl)pyridin-4-yloxy)-N-(1,2,3,4-tetrahydronaphthalen-1-yl)benzo[d]thiazol-2-amine]: the inhibition at 1 µM stood at 100% in test [1]; 100% in test [2]; 99% on kinase domain of cKIT; 92% on kinase domain of PDGFRβ; 100% in test [3].

Turning to `CC(C)CCNc1nc2ccc(Oc3ccnc(-c4cnn(C)c4)c3)cc2s1` [Example 365, N-isopentyl-6-(2-(1-methyl-1H-pyrazol-4-yl)pyridin-4-yloxy)benzo[d]thiazol-2-amine], the inhibition at 1 µM in test [1] was 100%; in test [2], 97%; at kinase domain of cKIT, 100%; at kinase domain of PDGFRβ, 79%; in test [3] it was 100%.

In the case of `CNC(=O)c1cc(Oc2ccc3nc(N[C@H]4CCCN(S(=O)(=O)C5CC5)C4)sc3c2)ccn1` [Example 367, (S)-4-(2-(1-(cyclopropylsulfonyl)piperidin-3-ylamino)benzo[d]thiazol-6-yloxy)-N-methylpicolinamide], the inhibition at 1 µM in test [1] was found to be 100%; in test [2] it was 89%; on kinase domain of cKIT, 13%; on kinase domain of PDGFRβ it was 7%; in test [3] it was 81%.

`CNC(=O)c1cc(Oc2ccc3nc(NCC4CCCCO4)sc3c2)ccn1` (stereo not drawn) [Example 370, N-methyl-4-(2-((tetrahydro-2H-pyran-2-yl)methylamino)benzo[d]thiazol-6-yloxy)picolinamide]: the inhibition at 1 µM in test [1] was 100%; in test [2], 81%; at kinase domain of cKIT, 64%; on kinase domain of PDGFRβ, 34%; in test [3], 60%.

`O[C@@H]1CCCC[C@H]1Nc1nc2ccc(Oc3ccnc(-c4ccco4)c3)cc2s1` [Example 371, (1R,2R)-2-(6-(2-(furan-2-yl)pyridin-4-yloxy)benzo[d]thiazol-2-ylamino)cyclohexanol]: the inhibition at 1 µM in test [1] is 100%; in test [2], 79%; at kinase domain of cKIT it was 29%; at kinase domain of PDGFRβ, 9%; in test [3], 69%.

Regarding `O[C@@H]1CCCC[C@H]1Nc1nc2ccc(Oc3ccnc(-c4ncco4)c3)cc2s1` [Example 372, (1R,2R)-2-(6-(2-(oxazol-2-yl)pyridin-4-yloxy)benzo[d]thiazol-2-ylamino)cyclohexanol], the inhibition at 1 µM in test [1] came to 100%; in test [2], 88%; on kinase domain of cKIT, 21%; at kinase domain of PDGFRβ, 8%; in test [3] it was 75%.

Turning to `Cn1cc(-c2cc(Oc3ccc4nc(N[C@H]5CCCN(S(=O)(=O)C6CC6)C5)sc4c3)ccn2)cn1` [Example 373, (S)-N-(1-(cyclopropylsulfonyl)piperidin-3-yl)-6-(2-(1-methyl-1H-pyrazol-4-yl)pyridin-4-yloxy)benzo[d]thiazol-2-amine], the inhibition at 1 µM in test [1] came out at 101%; in test [2], 91%; on kinase domain of cKIT it was 51%; on kinase domain of PDGFRβ, 0%; in test [3], 100%.

`CNC(=O)c1cc(Oc2ccc3nc(N[C@@H]4CCCC[C@H]4O)sc3c2Br)ccn1` [Example 376, 4-(7-bromo-2-((1R,2R)-2-hydroxycyclohexylamino)benzo[d]thiazol-6-yloxy)-N-methylpicolinamide]: the inhibition at 1 µM in test [1] came to 100%; in test [2], 77%; at kinase domain of cKIT, 72%; at kinase domain of PDGFRβ, 28%; in test [3], 87%.

In the case of `CNC(=O)c1cc(Oc2ccc3nc(N[C@@H]4CCCC[C@H]4O)sc3c2Cl)ccn1` [Example 378, 4-(7-chloro-2-((1R,2R)-2-hydroxycyclohexylamino)benzo[d]thiazol-6-yloxy)-N-methylpicolinamide], the inhibition at 1 µM in test [1] came out at 100%; in test [2], 87%; on kinase domain of cKIT, 62%; on kinase domain of PDGFRβ it was 43%; in test [3], 90%.

Consider `CC(C)CONC(=O)c1cc(Oc2ccc3nc(NCC4CCCCC4)sc3c2)ccn1` [Example 380, 4-(2-(cyclohexylmethylamino)benzo[d]thiazol-6-yloxy)-N-isobutoxypicolinamide], for which the inhibition at 1 µM came out at 100% in test [1]; 94% in test [2]; 53% on kinase domain of cKIT; 49% on kinase domain of PDGFRβ; 79% in test [3].

For the compound `CC(C)CONC(=O)c1cc(Oc2ccc3nc(N[C@@H]4CCCC[C@H]4O)sc3c2)ccn1` [Example 381, 4-(2-((1R,2R)-2-hydroxycyclohexylamino)benzo[d]thiazol-6-yloxy)-N-isobutoxypicolinamide], the inhibition at 1 µM in test [1] was 100%; in test [2], 99%; at kinase domain of cKIT it was 30%; at kinase domain of PDGFRβ, 20%; in test [3], 100%.
